PubChem BioAssay (NCI)
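Each compound was tested at five concentrations against cells in 96-well plates for 48 hours. The concentration for full growth arrest is given as TGI.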

Key:
Assay in all cases: NCI-60 cell line screen, 48 h
LOX IMVI melanoma = system: LOX IMVI melanoma
KM20L2 colon = system: KM20L2 colon
RXF-631 renal = system: RXF-631 renal
NCI-H23 lung = system: NCI-H23 lung
HL-60(TB) leukemia = system: HL-60(TB) leukemia
CCRF-CEM leukemia = system: CCRF-CEM leukemia
HOP-18 NSCLC = system: HOP-18 NSCLC
A549 NSCLC = system: A549 NSCLC
NCI-H460 lung = system: NCI-H460 lung
SNB-75 CNS = system: SNB-75 CNS
SN12C renal = system: SN12C renal
OVCAR-5 ovarian = system: OVCAR-5 ovarian
NCI-H522 lung = system: NCI-H522 lung
HT29 colon = system: HT29 colon
UACC-257 melanoma = system: UACC-257 melanoma
HOP-92 NSCLC = system: HOP-92 NSCLC
OVCAR-8 ovarian = system: OVCAR-8 ovarian
KM12 colon = system: KM12 colon
U251 CNS = system: U251 CNS
CAKI-1 renal = system: CAKI-1 renal
EKVX NSCLC = system: EKVX NSCLC
COLO 205 colon = system: COLO 205 colon
SW-620 colon = system: SW-620 colon
SF-295 CNS = system: SF-295 CNS
SK-MEL-28 melanoma = system: SK-MEL-28 melanoma
HCC-2998 colon = system: HCC-2998 colon
UACC-62 melanoma = system: UACC-62 melanoma
TK-10 renal = system: TK-10 renal
LXFL 529 NSCLC = system: LXFL 529 NSCLC
SF-539 CNS = system: SF-539 CNS
SK-OV-3 ovarian = system: SK-OV-3 ovarian
SF-268 CNS = system: SF-268 CNS
MALME-3M melanoma = system: MALME-3M melanoma
OVCAR-3 ovarian = system: OVCAR-3 ovarian
DLD-1 colon = system: DLD-1 colon
DMS 273 small cell lung = system: DMS 273 small cell lung
786-0 renal = system: 786-0 renal
IGROV1 ovarian = system: IGROV1 ovarian
M19-MEL melanoma = system: M19-MEL melanoma
HOP-62 NSCLC = system: HOP-62 NSCLC
UO-31 renal = system: UO-31 renal
SK-MEL-5 melanoma = system: SK-MEL-5 melanoma
ACHN renal = system: ACHN renal
DMS 114 small cell lung = system: DMS 114 small cell lung
K-562 leukemia = system: K-562 leukemia
M14 melanoma = system: M14 melanoma
RXF 393 renal = system: RXF 393 renal
OVCAR-4 ovarian = system: OVCAR-4 ovarian
SK-MEL-2 melanoma = system: SK-MEL-2 melanoma

SMILES: O=C1/C(=C\c2ccccc2)C2/C(=C\c3ccccc3)C(=O)/C(=C\c3ccccc3)C2/C1=C\c1ccccc1 (centres undefined)
- TGI (LOX IMVI melanoma): 1.75 µM
- TGI (KM20L2 colon): 3.55 µM
- TGI (RXF-631 renal): 9.68 µM
- TGI (NCI-H23 lung): 3.78 µM
- TGI (HL-60(TB) leukemia): 4.5 µM
- TGI (CCRF-CEM leukemia): 4.35 µM
- TGI (HOP-18 NSCLC): > 100 µM
- TGI (A549 NSCLC): 7 µM
- TGI (NCI-H460 lung): 4.2 µM
- TGI (SNB-75 CNS): 71.2 µM
- TGI (SN12C renal): 4.89 µM
- TGI (OVCAR-5 ovarian): 2.82 µM
- TGI (NCI-H522 lung): 2.09 µM
- TGI (HT29 colon): 3.7 µM
- TGI (UACC-257 melanoma): 4.2 µM
- TGI (HOP-92 NSCLC): 4.4 µM
- TGI (OVCAR-8 ovarian): 21.2 µM
- TGI (KM12 colon): 3.54 µM
- TGI (U251 CNS): 2.43 µM
- TGI (CAKI-1 renal): 8.17 µM
- TGI (EKVX NSCLC): 52.7 µM
- TGI (COLO 205 colon): 2.94 µM
- TGI (SW-620 colon): 7.26 µM
- TGI (SF-295 CNS): 5.71 µM
- TGI (SK-MEL-28 melanoma): 8.75 µM
- TGI (HCC-2998 colon): 2.59 µM
- TGI (UACC-62 melanoma): 4.24 µM
- TGI (TK-10 renal): 19.5 µM
- TGI (LXFL 529 NSCLC): 24.9 µM
- TGI (SF-539 CNS): 6.81 µM
- TGI (SK-OV-3 ovarian): 46.9 µM
- TGI (SF-268 CNS): 18.5 µM
- TGI (MALME-3M melanoma): 4.36 µM
- TGI (OVCAR-3 ovarian): 4.92 µM
- TGI (DLD-1 colon): 2.85 µM
- TGI (DMS 273 small cell lung): 3.17 µM
- TGI (786-0 renal): 2.78 µM
- TGI (IGROV1 ovarian): 4.8 µM
- TGI (M19-MEL melanoma): 3.47 µM
- TGI (HOP-62 NSCLC): 5.03 µM
- TGI (UO-31 renal): 3.32 µM
- TGI (SK-MEL-5 melanoma): 4.7 µM
- TGI (ACHN renal): 5.94 µM
- TGI (DMS 114 small cell lung): 5.67 µM
- TGI (K-562 leukemia): > 100 µM
- TGI (M14 melanoma): 3.44 µM
- TGI (RXF 393 renal): 3.15 µM
- TGI (OVCAR-4 ovarian): 3.83 µM
- TGI (SK-MEL-2 melanoma): 3.62 µM
